Assay results taken from patent US20230045509A1, “PHARMACEUTICAL COMPOSITIONS COMPRISING CABOTEGRAVIR” (ViiV Healthcare Company, priority 2019, published 2023).

How the values were obtained:
HIV-1 strains = details: integrase strand transfer inhibitor; background statement; cited from earlier work
[1] = Wettability study to define limits of cabotegravir suspension strength; format: physicochemical
Method: Wettability of Cabotegravir in 38 mg/mL P338, 35 mg/mL PEG3350, and 20 mg/mL mannitol was assessed to estimate the approximate concentration limit for Cabotegravir suspension in this vehicle. This was performed by adding increasing amounts of Cab to 5 g of vehicle until a gross change in coarse suspension properties was observed.

Gross viscosity ([1]; 580† mg/mL Cabotegravir (calculated using approximated densities) in same vehicle): Boundary of thickening | Gross viscosity ([1]; 600† mg/mL Cabotegravir (calculated using approximated densities) in same vehicle): Thicker, but flowable | Gross viscosity ([1]; 635† mg/mL Cabotegravir (calculated using approximated densities) in same vehicle): Slightly paste-like | upper boundary of Cabotegravir solid suspension concentration ([1]; vehicle 38 mg/mL P338, 35 mg/mL PEG3350, 20 mg/mL mannitol): ≤ 600 mg/mL
SMILES: C[C@H]1CO[C@@H]2Cn3cc(C(=O)NCc4ccc(F)cc4F)c(=O)c(O)c3C(=O)N12 [Cabotegravir, N-((2,4-Difluorophenyl)methyl)-6-hydroxy-3-methyl-5,7-dioxo-2,3,5,7,11,11a hexahydro(1,3)oxazolo(3,2-a)pyrido(1,2-d)pyrazine-8-carboxamide]
potency (HIV-1 strains): subnanomolar potency
